Assay results published in patent publication US12325701B2, “YKL-40 inhibitors and their therapeutic” (Molecure S.A., priority 2022, dated 2025).
Structures can show the parent of a compound that is named as a salt.

Biological target: YKL-40 (YKL-40-histag, chitin binding site) (Homo sapiens (Human), UniProt P36222)
Assay: YKL-40:4 assay, competitive chitin binding site AlphaScreen
Settings: not given

Chain of YKL-40 (YKL-40-histag, chitin binding site) (P36222 22-383): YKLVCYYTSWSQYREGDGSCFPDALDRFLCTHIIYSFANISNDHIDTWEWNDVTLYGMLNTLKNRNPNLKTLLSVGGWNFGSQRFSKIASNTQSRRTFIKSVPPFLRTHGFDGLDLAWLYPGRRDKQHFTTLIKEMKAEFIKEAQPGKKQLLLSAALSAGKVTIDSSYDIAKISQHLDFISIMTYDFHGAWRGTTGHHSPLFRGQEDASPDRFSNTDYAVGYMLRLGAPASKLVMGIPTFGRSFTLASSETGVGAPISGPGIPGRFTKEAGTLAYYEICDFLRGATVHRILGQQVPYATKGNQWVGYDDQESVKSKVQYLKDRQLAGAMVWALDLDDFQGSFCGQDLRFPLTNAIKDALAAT

With `C[C@H]1CN(C2C[C@H]3CC[C@@H](C2)N3c2cc(Cl)ccn2)[C@@H](Cc2ccc(Cl)cc2)CO1` (stereo partly drawn) [Compound 58, (2S,5S)-5-(4-chlorobenzyl)-4-((1R,5S)-8-(4-chloropyridin-2-yl)-8-azabicyclo[3.2.1]octan-3-yl)-2-methylmorpholine 2,2,2-trifluoroacetate] as the molecule, how does the IC50 read?
Its IC50 is over 10 µM.

For `C[C@H]1CN(C2CCN(c3ccncn3)CC2)[C@@H](Cc2ccc(Cl)cc2)CO1` [Example 26, (2S,5S)-5-(4-chlorobenzyl)-2-methyl-4-(1-(pyrimidin-4-yl)piperidin-4-yl)morpholi-ne 2,2,2-trifluoroacetate], which IC50 is on record?
The IC50 was over 10 µM.

With `CN1C[C@H](Cc2ccc(Cl)cc2)N(C2CCN(c3cc(Cl)ccn3)CC2)C[C@@H]1COc1ccc2ccccc2c1` [Compound 84, (2S,5R)-2-(4-chlorobenzyl)-1-(1-(4-chloropyridin-2-yl)piperidin-4-yl)-4-methyl-5-((naphthalen-2-yloxy)methyl)piperazine 2,2,2-trifluoroacetate] as the molecule, how does the IC50 read?
Its IC50 is over 10 µM.

`C[C@H]1CN(C2CCN(c3ncnc(N(C)C)n3)CC2)[C@@H](Cc2ccc(Cl)cc2)CO1` [Compound 175, 4-(4-((2S,5S)-5-(4-chlorobenzyl)-2-methylmorpholino)piperidin-1-yl)-N,N-dimethyl-1,3,5-triazin-2-amine 2,2,2-trifluoroacetate] was tested. Which IC50 did it give?
Its IC50 is over 10 µM.

Which IC50 does the source give for `C[C@H]1CN(C2CCN(c3ncnc(C#N)n3)CC2)[C@@H](Cc2ccc(Cl)cc2)CO1` [Compound 173, 4-(4-((2S,5S)-5-(4-chlorobenzyl)-2-methylmorpholino)piperidin-1-yl)-1,3,5-triazine-2-carbonitrile 2,2,2-trifluoroacetate] here?
The IC50 was over 10 µM.

How did the IC50 turn out when `C[C@H]1CN(C2CCN(c3ccccc3C#N)CC2)[C@@H](Cc2ccc(Cl)cc2)CO1` [Compound 119, 2-(4-((2S,5S)-5-(4-chlorobenzyl)-2-methylmorpholino)piperidin-1-yl)benzonitrile 2,2,2-trifluoroacetate] was run?
The IC50 was over 10 µM.

With `Clc1ccc(C[C@H]2COc3ccccc3CN2C2CCN(c3ccccn3)CC2)cc1` [Compound 81, (S)-3-(4-chlorobenzyl)-4-(1-(pyridin-2-yl)piperidin-4-yl)-2,3,4,5-tetrahydrobenzof[1,4]oxazepine hydrochloride] as the molecule, how does the IC50 read?
The IC50 was over 10 µM.

With `COc1cccnc1N1CCC(N2C[C@H](C)OC[C@@H]2Cc2ccc(Cl)cc2)CC1` [Compound 162, (2S,5S)-5-(4-chlorobenzyl)-4-(1-(3-methoxypyridin-2-yl)piperidin-4-yl)-2-methylmorpholine 2,2,2-trifluoroacetate] as the molecule, how does the IC50 read?
The IC50 was over 10 µM.

For `C[C@H]1CN(C2CCN(c3ncnc(Cl)n3)CC2)[C@@H](Cc2ccc(Cl)cc2)CO1` [Compound 169, (2S,5S)-4-(1-(4-chloro-1,3,5-triazin-2-yl)piperidin-4-yl)-5-(4-chlorobenzyl)-2-methylmorpholine 2,2,2-trifluoroacetate], which IC50 is on record?
Its IC50 is over 10 µM.

With `Cc1ncnc(N2CCC(N3C[C@H](C)OC[C@@H]3Cc3ccc(Cl)cc3)CC2)n1` [Compound 172, (2S,5S)-5-(4-chlorobenzyl)-2-methyl-4-(1-(4-methyl-1,3,5-triazin-2-yl)piperidin-4-yl)morpholine 2,2,2-trifluoroacetate] as the molecule, how does the IC50 read?
The IC50 was over 10 µM.

How did the IC50 turn out when `Cc1cccnc1N1CCC(N2C[C@H](C)OC[C@@H]2Cc2ccc(Cl)cc2)CC1` [Example 16, (2S,5S)-5-(4-chlorobenzyl)-2-methyl-4-(1-(3-methylpyridin-2-yl)piperidin-4-yl)morpholine 2,2,2-trifluoroacetate] was run?
The IC50 was over 10 µM.

How did the IC50 turn out when `C[C@H]1CN(C2CCN(c3nccc4ccccc34)CC2)[C@@H](Cc2ccc(Cl)cc2)CO1` [Compound 116, (2S,5S)-5-(4-chlorobenzyl)-4-(1-(isoquinolin-1-yl)piperidin-4-yl)-2-methylmorpholine 2,2,2-trifluoroacetate] was run?
The IC50 was over 10 µM.

How did the IC50 turn out when `C[C@H]1CN(C2CCN(c3cc(C(N)=O)ccn3)CC2)[C@@H](Cc2ccc(Cl)cc2)CO1` [Compound 132, 2-(4-((2S,5S)-5-(4-chlorobenzyl)-2-methylmorpholino)piperidin-1-yl)isonicotinamide 2,2,2-trifluoroacetate] was run?
The IC50 was over 10 µM.

Which IC50 does the source give for `CC(C)C[C@H]1CN(C2CCN(c3ccccn3)CC2)[C@@H](Cc2ccc(Cl)cc2)CN1CC(=O)OC(C)(C)C` [Compound 2g, tert-butyl 2-((2S,5S)-5-(4-chlorobenzyl)-2-isobutyl-4-(1-(pyridin-2-yl)piperidin-4-yl)piperazin-1-yl)acetate] here?
Its IC50 is over 10 µM.

With `C[C@H]1CN(C2CCN(c3cc(=O)[nH]cn3)CC2)[C@@H](Cc2ccc(Cl)cc2)CO1` [Compound 167, 6-(4-((2S,5S)-5-(4-chlorobenzyl)-2-methylmorpholino)piperidin-1-yl)pyrimidin-4(3H)-one 2,2,2-trifluoroacetate] as the molecule, how does the IC50 read?
The IC50 was over 10 µM.

`C[C@H]1CN(C2CCN(c3nnn[nH]3)CC2)[C@@H](Cc2ccc(Cl)cc2)CO1` [Compound 166, (2S,5S)-4-(1-(1H-tetrazol-5-yl)piperidin-4-yl)-5-(4-chlorobenzyl)-2-methylmorpholine 2,2,2-trifluoroacetate] was tested. Which IC50 did it give?
Its IC50 is over 10 µM.

Which IC50 does the source give for `C[C@H]1CN(C2CCN(c3ncccc3CO)CC2)[C@@H](Cc2ccc(Cl)cc2)CO1` [Compound 120, (2-(4-((2S,5S)-5-(4-chlorobenzyl)-2-methylmorpholino)piperidin-1-yl)pyridin-3-yl)methanol 2,2,2-trifluoroacetate] here?
Its IC50 is over 10 µM.

How did the IC50 turn out when `C[C@H]1CN(C2CCN(c3cc(C(C)(C)O)ccn3)CC2)[C@@H](Cc2ccc(Cl)cc2)CO1` [Compound 131, 2-(2-(4-((2S,5S)-5-(4-chlorobenzyl)-2-methylmorpholino)piperidin-1-yl)pyridin-4-yl)propan-2-ol 2,2,2-trifluoroacetate] was run?
Its IC50 is over 10 µM.

Same assay, conditions: competition with biotinylated compound 4, 20 nM; YKL-40-histag 2.5 nM; read-out: YKL-40:4, IC50/Kd (IC50 range)

Which IC50 does the source give for `C[C@H]1CN(C2CCN(c3ccccc3)CC2)[C@@H](Cc2ccc(Cl)cc2)CO1` [Example 37, (2S,5S)-5-(4-chlorobenzyl)-2-methyl-4-(1-phenylpiperidin-4-yl)morpholine dihydro-chloride] here?
The IC50 was over 10 µM.

With `Cc1ccc(N2CCC(N3C[C@H](C)OC[C@@H]3Cc3ccc(Cl)cc3)CC2)nc1` [Compound 136, (2S,5S)-5-(4-chlorobenzyl)-2-methyl-4-(1-(5-methylpyridin-2-yl)piperidin-4-yl)morpholine hydrochloride] as the molecule, how does the IC50 read?
Its IC50 is over 10 µM.

`COC(=O)c1ccnc(N2CCC(N3C[C@H](C)OC[C@@H]3Cc3ccc(Cl)cc3)CC2)c1` [Compound 124, methyl 2-(4-((2S,5S)-5-(4-chlorobenzyl)-2-methylmorpholino)piperidin-1-yl)isonicotinate] was tested. Which IC50 did it give?
Its IC50 is over 10 µM.

Which IC50 does the source give for `Cc1cccc(N2CCC(N3C[C@H](C)OC[C@@H]3Cc3ccc(Cl)cc3)CC2)n1` [Compound 135, (2S,5S)-5-(4-chlorobenzyl)-2-methyl-4-(1-(6-methylpyridin-2-yl)piperidin-4-yl)morpholine hydrochloride] here?
Its IC50 is over 10 µM.

How did the IC50 turn out when `C[C@H]1CN(C2CCN(c3cncc(C(F)(F)F)n3)CC2)[C@@H](Cc2ccc(Cl)cc2)CO1` [Compound 153, (2S,5S)-5-(4-chlorobenzyl)-2-methyl-4-(1-(6-(trifluoromethyl)pyrazin-2-yl)piperidin-4-yl)morpholine hydrochloride] was run?
The IC50 was over 10 µM.

With `CC(C)C[C@H]1CN(C2CCN(c3ccccn3)CC2)[C@@H](Cc2ccc(Cl)cc2)CN1C(=O)OC(C)(C)C` [Compound 2e, tert-butyl (2S,5S)-5-(4-chlorobenzyl)-2-isobutyl-4-(1-(pyridin-2-yl)piperidin-4-yl)piperazine-1-carboxylate] as the molecule, how does the IC50 read?
The IC50 was over 10 µM.
